This is an account of results in publication PMC10269878 (Microbiology Spectrum, 2023).

The conditions of series [1]: mouse, in vivo.
The next series relates to melioidosis. To be noted: in vivo; cited from earlier work.
A short description of a further series: in vivo. To be noted: mouse, po, 100 mg/kg.

Molecules are shown by their SMILES.

As for `C[C@H]1c2cccc(O)c2C(=O)C2=C(O)[C@]3(O)C(=O)C(C(N)=O)=C(O)[C@@H](N(C)C)[C@@H]3[C@@H](O)[C@@H]21` [Doxycycline, doxycycline monohydrate], the “Doxycycline Absorption (ka)” value in series [1] was found to be 1.68 h⁻¹. In the series on melioidosis, the “Efficacy alone to clear melioidosis” value is “ineffective alone to clear melioidosis”. Moreover, in the series “in vivo”, the AUC(0-t) (usually exposure summed from dosing to a finite time, without extrapolation to infinity) was found to be 12700 ng·h/mL; the Tmax (as a rule, the time at which the peak concentration occurs) came out at 1.24 h; the half-life – broadly, the time needed for the level to fall by half in the phase considered – was 2.56 h; the k el was 7.5e-05 s⁻¹.
